pIC50: −log10 of the molar value.
Tests used:
[1] = organism: Bos taurus; test: Inhibition of Bos taurus (bovine) heart submitochondrial NADH complex 1 at 12 nM by NADH oxidase assay
[2] = Inhibition of Bos taurus (bovine) heart submitochondrial NADH complex 1 by NADH oxidase assay

O=C1N[C@H]2[C@H](CS[C@H]2CCCCC(=O)OCCCCCCC[C@@H](O)[C@H]2CC[C@H]([C@H]3CC[C@H]([C@H](O)CCCCCCOc4ccc(C5(C(F)(F)F)N=N5)cc4)O3)O2)N1
inhibition [1]: > 95% | pIC50 [2]: 8.41

CCCCCCCCCC[C@@H](O)[C@H]1CC[C@H]([C@H]2CC[C@H]([C@H](O)CCCCCCCCCC)O2)O1 [dleta-lac-Acetogenin]
pIC50 [2]: 8.74

From ChEMBL document CHEMBL3045300, “Synthesis of photolabile lac-acetogenin for photoaffinity labeling of mitochondrial complex I” (J Pestic Sci, 2006)
